Source: patent US7118895B2, “Process for producing aglycon by using diglycosidase and flavor-improved food containing the aglycon and converting agent to be used in the process” (Amano Enzyme Inc., priority 2000, dated 2006)
Values belong to the molecule of their own block, whether it stands above or below them.

System: Crude diglycosidase
Assay: Examination of substrate concentration in the conversion into isoflavone aglycons by diglycosidase using soybean materials;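 as to Decomposition efficiency: ratio of each glycoside/aglycon within its isoflavone family: percent of the isoflavone family total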
Type: biochemical, Penicillium multicolor IAM7153
Experimental: Into 20 mM acetate buffer of pH 4.0 was suspended 0.1 g, 0.25 g, 0.5 g, 1.0 g, or 1.5 g of each of various soybean materials (roasted soy flour (manufactured by Fuji Shokuryo K.K.), soymilk (manufactured by Gitoh Shokuhin K.K.), defatted soybean (manufactured by Fuji Seiyu K.K.), concentrated soybean protein (manufactured by Fuji Seiyu K.K.)). The pH of the suspension was measured and the liquid volume was adjusted to 4.5 mL while the pH was adjusted to 4.0 with 1N hydrochloric acid. An enzyme solution wherein diglycosidase activity of crude diglycosidase was adjusted to 1.88 AU/mL was added thereto in an amount of 0.5 mL, whereby the final liquid volume was 5.0 mL. Namely, the ratio of the soybean material in the reaction mixture was 2%, 5%, 10%, 20%, or 30% (w/v). The whole was reacted at 55° C. under shaking. To 5 mL of the reaction mixture was added 7 mL of ethanol after 0, 1, 3, and 6 hours of the reaction. After ultrasonication, the mixture was thoroughly mixed. It was subjected to centrifugal separation at 2,000 rpm and room temperature for 5 minutes. Then, […] of the supernatant was placed in a 1.5 mL microtube and was subjected to centrifugal separation at 15,000 rpm and 4° C. for 10 minutes. The supernatant was filtered through a filter and each sample was suitably diluted by a factor of 1 to 6 depending on the substrate concentration. Fifty μL of the diluted solution was analyzed by HLPC (Tables 27 to 38).

Decomposition efficiency: ratio of each glycoside/aglycon within its isoflavone family (soymilk, substrate concentration 2%, heat treatment of enzyme no, reaction time 0 h): not detected
Decomposition efficiency: ratio of each glycoside/aglycon within its isoflavone family (soymilk, substrate concentration 2%, heat treatment of enzyme no, reaction time 1 h): not detected
Decomposition efficiency: ratio of each glycoside/aglycon within its isoflavone family (soymilk, substrate concentration 2%, heat treatment of enzyme no, reaction time 3 h): not detected
Decomposition efficiency: ratio of each glycoside/aglycon within its isoflavone family (soymilk, substrate concentration 2%, heat treatment of enzyme no, reaction time 6 h): not detected
Decomposition efficiency: ratio of each glycoside/aglycon within its isoflavone family (soymilk, substrate concentration 2%, heat treatment of enzyme yes, reaction time 6 h): not detected
Decomposition efficiency: ratio of each glycoside/aglycon within its isoflavone family (soymilk, substrate concentration 5%, heat treatment of enzyme no, reaction time 0 h): not detected
Decomposition efficiency: ratio of each glycoside/aglycon within its isoflavone family (soymilk, substrate concentration 5%, heat treatment of enzyme no, reaction time 1 h): not detected
Decomposition efficiency: ratio of each glycoside/aglycon within its isoflavone family (soymilk, substrate concentration 5%, heat treatment of enzyme no, reaction time 3 h): not detected
Decomposition efficiency: ratio of each glycoside/aglycon within its isoflavone family (soymilk, substrate concentration 5%, heat treatment of enzyme no, reaction time 6 h): not detected
Decomposition efficiency: ratio of each glycoside/aglycon within its isoflavone family (soymilk, substrate concentration 5%, heat treatment of enzyme yes, reaction time 6 h): not detected
Decomposition efficiency: ratio of each glycoside/aglycon within its isoflavone family (soymilk, substrate concentration 10%, heat treatment of enzyme no, reaction time 0 h): not detected
Decomposition efficiency: ratio of each glycoside/aglycon within its isoflavone family (soymilk, substrate concentration 10%, heat treatment of enzyme no, reaction time 1 h): not detected
Decomposition efficiency: ratio of each glycoside/aglycon within its isoflavone family (soymilk, substrate concentration 10%, heat treatment of enzyme no, reaction time 3 h): not detected
Decomposition efficiency: ratio of each glycoside/aglycon within its isoflavone family (soymilk, substrate concentration 10%, heat treatment of enzyme no, reaction time 6 h): not detected
Decomposition efficiency: ratio of each glycoside/aglycon within its isoflavone family (soymilk, substrate concentration 10%, heat treatment of enzyme yes, reaction time 6 h): not detected
Decomposition efficiency: ratio of each glycoside/aglycon within its isoflavone family (soymilk, substrate concentration 20%, heat treatment of enzyme no, reaction time 0 h): not detected
Decomposition efficiency: ratio of each glycoside/aglycon within its isoflavone family (soymilk, substrate concentration 20%, heat treatment of enzyme no, reaction time 1 h): not detected
Decomposition efficiency: ratio of each glycoside/aglycon within its isoflavone family (soymilk, substrate concentration 20%, heat treatment of enzyme no, reaction time 3 h): not detected
Decomposition efficiency: ratio of each glycoside/aglycon within its isoflavone family (soymilk, substrate concentration 20%, heat treatment of enzyme no, reaction time 6 h): not detected
Decomposition efficiency: ratio of each glycoside/aglycon within its isoflavone family (soymilk, substrate concentration 20%, heat treatment of enzyme yes, reaction time 6 h): not detected
Decomposition efficiency: ratio of each glycoside/aglycon within its isoflavone family (soymilk, substrate concentration 30%, heat treatment of enzyme no, reaction time 0 h): not detected
Decomposition efficiency: ratio of each glycoside/aglycon within its isoflavone family (soymilk, substrate concentration 30%, heat treatment of enzyme no, reaction time 1 h): not detected
Decomposition efficiency: ratio of each glycoside/aglycon within its isoflavone family (soymilk, substrate concentration 30%, heat treatment of enzyme no, reaction time 3 h): not detected
Decomposition efficiency: ratio of each glycoside/aglycon within its isoflavone family (soymilk, substrate concentration 30%, heat treatment of enzyme no, reaction time 6 h): not detected
Decomposition efficiency: ratio of each glycoside/aglycon within its isoflavone family (soymilk, substrate concentration 30%, heat treatment of enzyme yes, reaction time 6 h): not detected
SMILES: COc1cc2c(=O)c(-c3ccc(O)cc3)coc2cc1O[C@@H]1O[C@H](COC(C)=O)[C@@H](O)[C@H](O)[C@H]1O [acetyl-glycitin]

SMILES: O=c1c(-c2ccc(O)cc2)coc2cc(O[C@@H]3O[C@H](CO)[C@@H](O)[C@H](O)[C@H]3O)ccc12 [diadzin]
Decomposition efficiency: ratio of each glycoside/aglycon within its isoflavone family (concentrated soybean protein, substrate concentration 2%, heat treatment of enzyme no, reaction time 0 h): 52.8%
Decomposition efficiency: ratio of each glycoside/aglycon within its isoflavone family (concentrated soybean protein, substrate concentration 2%, heat treatment of enzyme no, reaction time 1 h): not detected
Decomposition efficiency: ratio of each glycoside/aglycon within its isoflavone family (concentrated soybean protein, substrate concentration 2%, heat treatment of enzyme no, reaction time 3 h): not detected
Decomposition efficiency: ratio of each glycoside/aglycon within its isoflavone family (concentrated soybean protein, substrate concentration 2%, heat treatment of enzyme no, reaction time 6 h): not detected
Decomposition efficiency: ratio of each glycoside/aglycon within its isoflavone family (concentrated soybean protein, substrate concentration 2%, heat treatment of enzyme yes, reaction time 6 h): 52.6%
Decomposition efficiency: ratio of each glycoside/aglycon within its isoflavone family (concentrated soybean protein, substrate concentration 5%, heat treatment of enzyme no, reaction time 0 h): 53.0%
Decomposition efficiency: ratio of each glycoside/aglycon within its isoflavone family (concentrated soybean protein, substrate concentration 5%, heat treatment of enzyme no, reaction time 1 h): not detected
Decomposition efficiency: ratio of each glycoside/aglycon within its isoflavone family (concentrated soybean protein, substrate concentration 5%, heat treatment of enzyme no, reaction time 3 h): not detected
Decomposition efficiency: ratio of each glycoside/aglycon within its isoflavone family (concentrated soybean protein, substrate concentration 5%, heat treatment of enzyme no, reaction time 6 h): not detected
Decomposition efficiency: ratio of each glycoside/aglycon within its isoflavone family (concentrated soybean protein, substrate concentration 5%, heat treatment of enzyme yes, reaction time 6 h): 53.5%
Decomposition efficiency: ratio of each glycoside/aglycon within its isoflavone family (concentrated soybean protein, substrate concentration 10%, heat treatment of enzyme no, reaction time 0 h): 52.8%
Decomposition efficiency: ratio of each glycoside/aglycon within its isoflavone family (concentrated soybean protein, substrate concentration 10%, heat treatment of enzyme no, reaction time 1 h): 2.2%
Decomposition efficiency: ratio of each glycoside/aglycon within its isoflavone family (concentrated soybean protein, substrate concentration 10%, heat treatment of enzyme no, reaction time 3 h): not detected
Decomposition efficiency: ratio of each glycoside/aglycon within its isoflavone family (concentrated soybean protein, substrate concentration 10%, heat treatment of enzyme no, reaction time 6 h): not detected
Decomposition efficiency: ratio of each glycoside/aglycon within its isoflavone family (concentrated soybean protein, substrate concentration 10%, heat treatment of enzyme yes, reaction time 6 h): 53.3%
Decomposition efficiency: ratio of each glycoside/aglycon within its isoflavone family (concentrated soybean protein, substrate concentration 20%, heat treatment of enzyme no, reaction time 0 h): 52.9%
Decomposition efficiency: ratio of each glycoside/aglycon within its isoflavone family (concentrated soybean protein, substrate concentration 20%, heat treatment of enzyme no, reaction time 1 h): 0.7%
Decomposition efficiency: ratio of each glycoside/aglycon within its isoflavone family (concentrated soybean protein, substrate concentration 20%, heat treatment of enzyme no, reaction time 3 h): not detected
Decomposition efficiency: ratio of each glycoside/aglycon within its isoflavone family (concentrated soybean protein, substrate concentration 20%, heat treatment of enzyme no, reaction time 6 h): not detected
Decomposition efficiency: ratio of each glycoside/aglycon within its isoflavone family (concentrated soybean protein, substrate concentration 20%, heat treatment of enzyme yes, reaction time 6 h): 52.8%
Decomposition efficiency: ratio of each glycoside/aglycon within its isoflavone family (concentrated soybean protein, substrate concentration 30%, heat treatment of enzyme no, reaction time 0 h): 49.2%
Decomposition efficiency: ratio of each glycoside/aglycon within its isoflavone family (concentrated soybean protein, substrate concentration 30%, heat treatment of enzyme no, reaction time 1 h): 2.7%
Decomposition efficiency: ratio of each glycoside/aglycon within its isoflavone family (concentrated soybean protein, substrate concentration 30%, heat treatment of enzyme no, reaction time 3 h): not detected
Decomposition efficiency: ratio of each glycoside/aglycon within its isoflavone family (concentrated soybean protein, substrate concentration 30%, heat treatment of enzyme no, reaction time 6 h): not detected
Decomposition efficiency: ratio of each glycoside/aglycon within its isoflavone family (concentrated soybean protein, substrate concentration 30%, heat treatment of enzyme yes, reaction time 6 h): 49.8%

Decomposition efficiency of genistin family in defatted soybean (substrate concentration 2%, heat treatment of enzyme no, reaction time 0 h): 37.7
Decomposition efficiency of genistin family in defatted soybean (substrate concentration 2%, heat treatment of enzyme no, reaction time 1 h): not detected
Decomposition efficiency of genistin family in defatted soybean (substrate concentration 2%, heat treatment of enzyme no, reaction time 3 h): not detected
Decomposition efficiency of genistin family in defatted soybean (substrate concentration 2%, heat treatment of enzyme no, reaction time 6 h): not detected
Decomposition efficiency of genistin family in defatted soybean (substrate concentration 2%, heat treatment of enzyme yes, reaction time 6 h): 38.7
Decomposition efficiency of genistin family in defatted soybean (substrate concentration 5%, heat treatment of enzyme no, reaction time 0 h): 40.0
Decomposition efficiency of genistin family in defatted soybean (substrate concentration 5%, heat treatment of enzyme no, reaction time 1 h): not detected
Decomposition efficiency of genistin family in defatted soybean (substrate concentration 5%, heat treatment of enzyme no, reaction time 3 h): not detected
Decomposition efficiency of genistin family in defatted soybean (substrate concentration 5%, heat treatment of enzyme no, reaction time 6 h): not detected
Decomposition efficiency of genistin family in defatted soybean (substrate concentration 5%, heat treatment of enzyme yes, reaction time 6 h): 41.8
Decomposition efficiency of genistin family in defatted soybean (substrate concentration 10%, heat treatment of enzyme no, reaction time 0 h): 42.4
Decomposition efficiency of genistin family in defatted soybean (substrate concentration 10%, heat treatment of enzyme no, reaction time 1 h): not detected
Decomposition efficiency of genistin family in defatted soybean (substrate concentration 10%, heat treatment of enzyme no, reaction time 3 h): not detected
Decomposition efficiency of genistin family in defatted soybean (substrate concentration 10%, heat treatment of enzyme no, reaction time 6 h): not detected
Decomposition efficiency of genistin family in defatted soybean (substrate concentration 10%, heat treatment of enzyme yes, reaction time 6 h): 44.3
SMILES: O=c1c(-c2ccc(O)cc2)coc2cc(O[C@@H]3O[C@H](CO)[C@@H](O)[C@H](O)[C@H]3O)cc(O)c12 [genisitin]
